From US12258329B2 (Merck Sharp & Dohme LLC, priority 2018, dated 2025)

test system: infected PBMCs (VSV-G pseudotyped HIV virus VSV-G/pNLG1-P2A-ΔEnv); experiment: cells; format: cell-based, human; settings: Homo sapiens, PBMC, read-out: TACK EC50

Compound | EC50
Cc1nc(C)c(Cn2cnc(C(F)(F)C(F)(F)F)c(Oc3cc(Br)cc(C#N)c3Cl)c2=O)c(=O)[nH]1 [Example 82, 5-bromo-2-chloro-3-((1-((2,4-dimethyl-6-oxo-1,6-dihydro-pyrimidin-5-yl)methyl)-6-oxo-4-(perfluoroethyl)-1,6-dihydro-pyrimidin-5-yl)oxy)benzonitrile] | 0.531 µM
Cc1nc(C)c(Cn2cnc(C(F)(F)F)c(Oc3cc(Cl)cc(C#N)c3Cl)c2=O)c(=O)[nH]1 [Example 90, 2,5-dichloro-3-((1-((2,4-dimethyl-6-oxo-1,6-dihydropyrimidin-5-yl)methyl)-6-oxo-4-(trifluoromethyl)-1,6-dihydropyrimidin-5-yl)oxy) benzonitrile] | 0.489 µM
CCc1nc(C)[nH]c(=O)c1Cn1cnc(C(F)(F)C(F)F)c(Oc2cc(C(F)F)cc(C#N)c2C)c1=O [Example 61, 5-(difluoromethyl)-3-((1-((4-ethyl-2-methyl-6-oxo-1,6-dihydropyrimidin-5-yl)methyl)-6-oxo-4-(1,1,2,2-tetrafluoroethyl)-1,6-dihydropyrimidin-5-yl)oxy)-2-methylbenzonitrile] | 0.485 µM
Cc1nc(C)c(Cn2cnc(C(F)(F)C(F)(F)F)c(Oc3cc(Cl)cc(C#N)c3C)c2=O)c(=O)[nH]1 [Example 72, 5-chloro-3-((1-((2,4-dimethyl-6-oxo-1,6-dihydropyrimidin-5-yl)methyl)-6-oxo-4-(perfluoroethyl)-1,6-dihydro-pyrimidin-5-yl)oxy)-2-methylbenzonitrile] | 0.377 µM
Cc1nc(C(F)F)c(Cn2cnc(C(F)(F)C(F)(F)F)c(Oc3cc(C(F)F)cc(C#N)c3C)c2=O)c(=O)[nH]1 [Example 65, 5-(difluoromethyl)-3-((1-((4-(difluoromethyl)-2-methyl-6-oxo-1,6-dihydropyrimidin-5-yl)methyl)-6-oxo-4-(perfluoroethyl)-1,6-dihydropyrimidin-5-yl)oxy)-2-methylbenzonitrile] | 0.382 µM
Cc1nc(C)c(Cn2cnc(C(C)(F)F)c(Oc3cc(C(F)F)cc(C#N)c3C)c2=O)c(=O)[nH]1 [Example 6, 3-((4-(1,1-difluoroethyl)-1-((2,4-dimethyl-6-oxo-1,6-dihydropyrimidin-5-y1)methyl)-6-oxo-1,6-dihydropyrimidin-5-yl)oxy)-5-(difluoromethyl)-2-methylbenzonitrile] | 0.201 µM
COc1c(C#N)cc(C(F)F)cc1Oc1c(C(F)(F)C(F)F)ncn(Cc2cnc(C)[nH]c2=O)c1=O [Example 1, 5-(difluoromethyl)-2-methoxy-3-((1-((2-methyl-6-oxo-1,6-dihydropyrimidin-5-yl)methyl)-6-oxo-4-(1,1,2,2-tetrafluoroethyl)-1,6-dihydropyrimidin-5-yl)oxy)benzonitrile] | 0.431 µM
Cc1c(C#N)cc(C(F)F)cc1Oc1c(C(F)(F)C(F)F)ncn(Cc2cnc(CCCO)[nH]c2=O)c1=O [Example 46, 5-(difluoromethyl)-3-((1-((2-(3-hydroxypropyl)-6-oxo-1,6-dihydropyrimidin-5-yl)methyl)-6-oxo-4-(1,1,2,2-tetrafluoroethyl)-1,6-dihydropyrimidin-5-yl)oxy)-2-methylbenzonitrile] | 0.303 µM
Cc1nc(C)c(Cn2cnc(C(F)(F)C(F)F)c(Oc3cc(C(F)F)cc(C#N)c3Cl)c2=O)c(=O)[nH]1 [Example 21, 2-chloro-5-(difluoromethyl)-3-((1-((2,4-dimethyl-6-oxo-1,6-dihydropyrimidin-5-yl)methyl)-6-oxo-4-(1,1,2,2-tetrafluoroethyl)-1,6-dihydropyrimidin-5-yl)oxy)benzonitrile] | 0.132 µM
Cc1nc(N)c(Cn2cnc(C(F)(F)C(F)(F)F)c(Oc3cc(C(F)F)cc(C#N)c3C)c2=O)c(=O)[nH]1 [Example 37, 3-((1-((4-amino-2-methyl-6-oxo-1,6-dihydropyrimidin-5-yl)methyl)-6-oxo-4-(perfluoroethyl)-1,6-dihydropyrimidin-5-yl)oxy)-5-(difluoromethyl)-2-methylbenzonitrile] | 0.114 µM
Cc1nc(C)c(Cn2cnc(C(F)(F)C(F)F)c(Oc3cc(Cl)cc(C#N)c3N)c2=O)c(=O)[nH]1 [Example 27, 2-amino-5-chloro-3-((1-((2,4-dimethyl-6-oxo-1,6-dihydropyrimidin-5-yl)methyl)-6-oxo-4-(1,1,2,2-tetrafluoroethyl)-1,6-dihydropyrimidin-5-yl)oxy)benzonitrile] | 0.451 µM
Cc1nc(C)c(Cn2cnc(C(C)(F)F)c(Oc3cc(C#N)cc(C(F)F)c3)c2=O)c(=O)[nH]1 [Example 23, 3-((4-(1,1-difluoroethyl)-1-((2,4-dimethyl-6-oxo-1,6-dihydropyrimidin-5-yl)methyl)-6-oxo-1,6-dihydropyrimidin-5-yl)oxy)-5-(difluoromethyl)benzonitrile] | 0.429 µM
Cc1nc(C)c(Cn2cnc(C(C)(F)F)c(Oc3cc(Cl)cc(C#N)c3F)c2=O)c(=O)[nH]1 [Example 22, 5-Chloro-3-((4-(1,1-difluoroethyl)-1-((2,4-dimethyl-6-oxo-1,6-dihydropyrimidin-5-yl)methyl)-6-oxo-1,6-dihydropyrimidin-5-yl)oxy)-2-fluorobenzonitrile] | 0.181 µM
Cc1nc[nH]c(=O)c1Cn1cnc(C(F)(F)C(F)F)c(Oc2cc(C(F)F)cc(C#N)c2C)c1=O [Example 79, 5-(difluoromethyl)-2-methyl-3-((1-((4-methyl-6-oxo-1,6-dihydropyrimidin-5-yl)methyl)-6-oxo-4-(1,1,2,2-tetra-fluoroethyl)-1,6-dihydropyrimidin-5-yl)oxy)benzonitrile] | 0.46 µM
Cc1nc(C(C)O)[nH]c(=O)c1Cn1cnc(C(F)(F)C(F)F)c(Oc2cc(Cl)cc(C#N)c2F)c1=O (single isomer, unassigned) [Example 44] | 0.333 µM
Cc1nc(COc2ncccn2)[nH]c(=O)c1Cn1cnc(C(C)(F)F)c(Oc2cc(Cl)cc(C#N)c2F)c1=O [Example 24, 5-chloro-3-((4-(1,1-difluoroethyl)-1-((4-methyl-6-oxo-2-((pyrimidin-2-yloxy)methyl)-1,6-dihydropyrimidin-5-yl)methyl)-6-oxo-1,6-dihydropyrimidin-5-yl)oxy)-2-fluorobenzonitrile] | 0.339 µM
Cc1nc(C2CC2)c(Cn2cnc(C(F)(F)C(F)F)c(Oc3cc(C(F)F)cc(C#N)c3C)c2=O)c(=O)[nH]1 [Example 62] | 0.406 µM
Cc1nc(CO)[nH]c(=O)c1Cn1cnc(C(F)(F)C(F)F)c(Oc2cc(C(F)F)cc(C#N)c2C)c1=O [Example 48, 5-(difluoromethyl)-3-((1-((2-(hydroxymethyl)-4-methyl-6-oxo-1,6-dihydropyrimidin-5-yl)methyl)-6-oxo-4-(1,1,2,2-tetrafluoroethyl)-1,6-dihydropyrimidin-5-yl)oxy)-2-methylbenzonitrile] | 0.342 µM
Cc1nc(C)c(Cn2cnc(C(C)F)c(Oc3cc(C(F)F)cc(C#N)c3F)c2=O)c(=O)[nH]1 (single isomer, unassigned) [Example 32, (S) or (R)-5-(difluoromethyl)-3-((1-((2,4-dimethyl-6-oxo-1,6-dihydropyrimidin-5-yl)methyl)-4-(1-fluoroethyl)-6-oxo-1,6-dihydropyrimidin-5-yl)oxy)-2-fluorobenzonitrile] | 0.171 µM
Cc1nc(C)c(Cn2cnc(C(F)(F)C(F)(F)F)c(Oc3cc(Cl)cc(C#N)c3F)c2=O)c(=O)[nH]1 [Example 87, 5-chloro-3-((1-((2,4-dimethyl-6-oxo-1,6-dihydropyrimidin-5-yl)methyl)-6-oxo-4-(perfluoroethyl)-1,6-dihydropyrimidin-5-yl)oxy)-2-fluorobenzonitrile] | 0.217 µM
Cc1nc(C)c(Cn2cnc(C(F)(F)C(F)F)c(Oc3cc(C#N)cc(C(F)F)c3)c2=O)c(=O)[nH]1 [Example 69, 3-(difluoromethyl)-5-((1-((2,4-dimethyl-6-oxo-1,6-dihydropyrimidin-5-yl)methyl)-6-oxo-4-(1,1,2,2-tetra-fluoroethyl)-1,6-dihydropyrimidin-5-yl)oxy)benzonitrile] | 0.341 µM
Cc1nc(C)c(Cn2cnc(C(F)(F)C(F)F)c(Oc3cc(Cl)cc(C#N)c3F)c2=O)c(=O)[nH]1 [Example 81, 5-chloro-3-((1-((2,4-dimethyl-6-oxo-1,6-dihydropyrimidin-5-yl)methyl)-6-oxo-4-(1,1,2,2-tetrafluoroethyl)-1,6-dihydropyrimidin-5-yl)oxy)-2-fluorobenzonitrile] | 0.156 µM

same assay, conditions: read-out: TACK EC50

Compound | EC50
Cc1nc(C)c(Cn2cnc(C(C)F)c(Oc3cc(Cl)cc(C#N)c3F)c2=O)c(=O)[nH]1 (single isomer, unassigned) [Example 31] | 0.397 µM
Cc1nc(C(C)O)[nH]c(=O)c1Cn1cnc(C(F)(F)C(F)F)c(Oc2cc(C(F)F)cc(C#N)c2C)c1=O (single isomer, unassigned) [Example 54, 5-(difluoromethyl)-3-((1-((2-(1-hydroxyethyl)-4-methyl-6-oxo-1,6-dihydropyrimidin-5-yl)methyl)-6-oxo-4-(1,1,2,2-tetrafluoroethyl)-1,6-dihydropyrimidin-5-yl)oxy)-2-methylbenzonitrile] | 0.213 µM
COc1c(C#N)cc(C(F)F)cc1Oc1c(C(C)F)ncn(Cc2c(C)nc(C)[nH]c2=O)c1=O (single isomer, unassigned) [Example 35] | 0.351 µM
Cc1nc(C)c(Cn2cnc(C(C)F)c(Oc3cc(C(F)F)cc(C#N)c3F)c2=O)c(=O)[nH]1 (single isomer, unassigned) [Example 33, (R) or (S)-5-(difluoromethyl)-3-((1-((2,4-dimethyl-6-oxo-1,6-dihydropyrimidin-5-yl)methyl)-4-(1-fluoroethyl)-6-oxo-1,6-dihydropyrimidin-5-yl)oxy)-2-fluorobenzonitrile] | 0.208 µM
